# PubChem BioAssay (NCI)
#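 Each compound was tested at five concentrations against cells in 96-well plates for 48 hours. Definition used: TGI = concentration required for complete inhibition of growth.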
# Legend:
# Test in all cases: DTP human tumour cell line panel, 48 h
# U251 CNS = test system: U251 CNS
# SK-MEL-5 melanoma = test system: SK-MEL-5 melanoma
# A549 NSCLC = test system: A549 NSCLC
# PC-3 prostate = test system: PC-3 prostate
# M14 melanoma = test system: M14 melanoma
# HOP-62 NSCLC = test system: HOP-62 NSCLC
# T-47D breast = test system: T-47D breast
# K-562 leukemia = test system: K-562 leukemia
# SK-OV-3 ovarian = test system: SK-OV-3 ovarian
# SK-MEL-2 melanoma = test system: SK-MEL-2 melanoma
# SNB-75 CNS = test system: SNB-75 CNS
# ACHN renal = test system: ACHN renal
Structure (SMILES),TGI (U251 CNS) [µM],TGI (SK-MEL-5 melanoma) [µM],TGI (A549 NSCLC) [µM],TGI (PC-3 prostate) [µM],TGI (M14 melanoma) [µM],TGI (HOP-62 NSCLC) [µM],TGI (T-47D breast) [µM],TGI (K-562 leukemia) [µM],TGI (SK-OV-3 ovarian) [µM],TGI (SK-MEL-2 melanoma) [µM],TGI (SNB-75 CNS) [µM],TGI (ACHN renal) [µM]
c1ccc2c(c1)SC1Sc3ccccc3[S+]21 (stereo not drawn),45.5,22.7,> 100,> 100,87.7,> 100,> 100,> 23.3,> 100,> 100,> 100,20.4
O=C1NC(N2CCOCC2)=N/C1=C\c1ccccc1O,> 100,> 100,> 100,> 100,> 100,> 100,> 100,> 100,> 100,> 100,> 100,> 100
COC(=O)CC1C2CC3C(C2=O)C13 (stereo not drawn),> 100,> 100,> 100,> 100,> 100,> 100,> 100,> 100,> 100,> 100,> 100,> 100
COc1cc2[nH]c(-c3ccccc3)cc(=O)c2cc1OC,> 100,54.4,> 69.8,> 100,> 76.2,> 100,> 100,> 100,> 100,> 100,> 87.1,> 100
